US5206234A, “Benzolactam analogs as antagonists of CCK” (priority 1991, dated 1993)
Like-named read-outs stand apart in the source and are kept apart here.

Assays:
CCK-A receptors = details: cited from earlier work
[1] = tested on: CCK-A and CCK-B receptors; details: cited from earlier work
humans = details: cited from earlier work
CCK-B receptors = details: cited from earlier work
[2] = Deschodt-Lanckman et al.; cited from earlier work
[3] = tested on: exploratory behavior of the rat; assay: Exploratory behavior in automated activity cages, novel environment; type: in vivo, rat (Male Sprague Dawley)
Procedure: (§1) B. The effects of CCK-8 and compound A on the exploratory behavior of the rat were examined in automated activity cages and by direct observation. It is known that exogenous CCK-8 decreases exploratory behavior in rats in a novel environment by accelerating the process of habituation. [See Crawley, Pharm. Biochem & Behav. 20, 23-27 (1984).]
Expt 1. Male Sprague Dawley rats were injected ([…].) with CCK-8 and immediately placed in automated activity cages. Activity was measured for 30 minutes past injection.
Expt 2. Male SD rats were injected (s.c.) with the CCK antagonist compound A (0.0001-10 mg/kg) and immediately placed in the automated activity cages.

[4] = tested on: exploratory behavior of the rat; assay: Exploration in a novel environment by direct observation (perspex cage); type: in vivo; details: 0.1 mg/kg
Excerpt: as §1
Expt 3. In order to assess further the effect of Compound A on exploration in a novel environment, the motoric hehaviors of rats placed in a perspex cage was recorded by direct observation for a 15 minute period 15 minutes after treatment with Compound A.
Experimenters (unaware of the treatments the animals had received) recorded the frequency and duration of rearing, sniffing, grooming and cage crossing using a keypad interfaced to a BBC microcomputer.

anxiety (mice) [5] = assay: Black/white exploration test (anxiolytic activity); type: in vivo, mouse (male DBA2)
Excerpt: The black/white exploration test [Crawley et al. Pharmacology, Biochemistry and Behav. 13, 167 (1980)] is a simple animal model of anxiety. Rodents placed in a two compartment box which consists of a brightly lit, white painted side and a dimly lit, black painted side, display a marked preference for the black side of the apparatus. This behavior is caused by the aversive properties of the brightly lit, white painted section. Classical anxiolytic drugs [such as diazepam, see Crawley, supra] and novel anxiolytic drugs [such as 5HT3 antagonists, see Jones et al. Br. J. Pharm.
A. Naive male DBA2 mice (25-30) were housed on a reversed light/dark cycle and tested during the dark phase of the cycle under dim red light. The apparatus consisted of an open topped box (40 cm long×27 cm wide×27 cm high) divided into a small area (2/5) and a large area (3/5) by a partition that extended 20 cm above the walls. There was a 7.5×7.5 cm opening in the partition at floor level. The small compartment was painted black and the large compartment white. The floor of each compartment was marked into 9 cm squares. The white compartment was illuminated by a 100 W tungsten bulb 17 cm above the box and the black compartment by a similarly placed 60 W red bulb.
Animals that had been injected with drug or vehicle were placed individually into the centre of the white area and their behavior observed during a 5 minute period by remote video recording. Four behavioral parameters were recorded every minute: the number of exploratory rears in the white and black sections, the number of line crossings in the black and white sections, the number of transitions between the two sections and the time spent in the black and white sections. Animals were tested in treatment groups of 8-10 and vehicle controls were run on each test day. Data were analysed by ANOVA and Dunnetts test.

[6] = tested on: exploratory behavior of the rat; details: McElroy et al.; cited from earlier work
anxiety (mice) [7] = details: rodents; Crawley / Jones; cited from earlier work

CSCC[C@H](NC(=O)[C@@H](N)Cc1c[nH]c2ccccc12)C(=O)N[C@@H](CC(=O)O)C(=O)N[C@@H](Cc1ccccc1)C(N)=O [CCK-4]
Affinity for CCK-A receptors (CCK-A receptors): lower affinity
Receptor selectivity as agonist [1]: preferential CCK-B receptor agonist
Effect in humans (panic, gastrointestinal effects) (humans; in vivo): induce panic
Affinity for CCK-B receptors (CCK-B receptors): high affinity

CSCC[C@H](NC(=O)[C@H](Cc1ccc(OS(=O)(=O)O)cc1)NC(=O)[C@@H](N)CC(=O)O)C(=O)NCC(=O)N[C@@H](Cc1c[nH]c2ccccc12)C(=O)N[C@@H](CCSC)C(=O)N[C@@H](CC(=O)O)C(=O)N[C@@H](Cc1ccccc1)C(N)=O [CCK-8s, H-Asp-Tyr(SO3 H)-Met-Gly-Trp-Met-Asp-Phe-NH2]
Affinity for CCK-A receptors (CCK-A receptors): high affinity
Half-life [2]: less than 1 hour
Affinity for CCK-B receptors (CCK-B receptors): high affinity

CN1C(=O)[C@@H](NC(=O)c2cc3ccccc3[nH]2)N=C(c2ccccc2)c2ccccc21 [Compound A, 3(S)-(-)-1,3-dihydro-3-(2-indolecarbonylamino)-1-methyl-5-phenyl-2H-1,4-benzodiazepin-2-one]
Habituation and period of exploratory activity ([3]; 0.0001-10 mg/kg s.c., F(6,124)=2.54, p<0.05): delayed habituation and prolonged the period of exploratory activity of the rats
Level of activity at 25 minutes ([3]; 0.1 mg/kg s.c., 25 minutes, F(6.124)=3.18, p<0.01): significantly above controls
Level of activity at 25 minutes ([3]; doses higher and lower than 0.1 mg/kg, bell-shaped dose response): no significant effect on activity
Cage crossing ([4]; F(3,43)=3.79, P<0.05): significantly increased
Sniffing ([4]; F(3,43)=3.96, P<0.01): significantly increased
Rearing ([4]; F(3,43)=4.77, P<0.01): significantly increased
Preference for locomotion (line crossings) in the black side (anxiety (mice) [5]; 0.5, 5.0 and 500 ug/kg): abolished the preference for locomotion (line crossings) in the black side
Difference in time spent in the black and white side (anxiety (mice) [5]; 5.0 and 500 ug/kg): abolished
Active dose range (anxiety (mice) [5]; black/white exploration test, mice): 0.05 to 5.0 µg/kg
Preference for rearing in the black side (anxiety (mice) [5]; doses of 0.05, 0.5, 5.0 and 500 ug/kg): significantly decreased the preference for rearing in the black side

CNC1=Nc2ccc(Cl)cc2C(c2ccccc2)=[N+]([O-])C1 [chlordiazepoxide]
Spontaneous locomotor activity in rats in a novel environment [6]: increases spontaneous locomotor activity

CN1C(=O)CN=C(c2ccccc2)c2cc(Cl)ccc21 [diazepam]
Preference of the animal for the black dimly lit side (anxiety (mice) [7]): decrease the preference of the animal for the black dimly lit side of the apparatus

CCK-8: exogenous CCK-8, equipotent as an agonist at CCK-A and CCK-B receptors
Receptor selectivity as agonist [1]: equipotent as an agonist at CCK-A and CCK-B receptors
Locomotor activity ([3]; CCK-8 0.5-16 μg/kg i.p., 30 minutes, F(6,87)=3.21 (p<0.01)): dose-dependently decreased locomotor activity
Effect in humans (panic, gastrointestinal effects) (humans; studies in humans): induced gastrointestinal effects but not panic symptoms
